Drawing on ChEMBL document CHEMBL5620398, “Membrane-active substituted triazines as antibacterial agents against Staphylococcus aureus with potential for low drug resistance and broad activity” (Eur J Med Chem, 2023), this text covers MIC for 11 compounds.

Holding throughout (type): functional
In one experiment the test system is Serratia marcescens. The experiment can be described thus: Antibacterial activity against Serratia marcescens assessed as inhibition of bacterial growth by two-fold serial broth dilution method.
The test system of a further experiment is Enterococcus faecalis. The experiment can be described thus: Antibacterial activity against Enterococcus faecalis assessed as inhibition of bacterial growth by two-fold serial broth dilution method.
For the next experiment, the system named is Listeria. The experiment in a line: Antibacterial activity against Listeria sps. assessed as inhibition of bacterial growth by two-fold serial broth dilution method. For orientation: Broth dilution looks for growth in wells or tubes with falling amounts of substance.
In another experiment the test system is Salmonella enterica. The experiment in a line: Antibacterial activity against Salmonella enterica assessed as inhibition of bacterial growth by two-fold serial broth dilution method.
Another experiment has as its system Bacillus subtilis. The experiment can be described thus: Antibacterial activity against Bacillus subtilis assessed as inhibition of bacterial growth by two-fold serial broth dilution method.
The subject of another experiment is Escherichia coli. The experiment in a line: Antibacterial activity against Escherichia coli assessed as inhibition of bacterial growth by two-fold serial broth dilution method.
The subject of a further experiment is Staphylococcus aureus. The experiment can be described thus: Antibacterial activity against Staphylococcus aureus assessed as inhibition of bacterial growth by two-fold serial broth dilution method.
The subject of experiment [1] is Acinetobacter calcoaceticus. The experiment in a line: Antibacterial activity against Acinetobacter calcoaceticus assessed as inhibition of bacterial growth by two-fold serial broth dilution method.

Values after ≈ are worked out from the molar mass of the structure shown. Active and inactive are the calls of the source. No cut-off for these calls is given here.

The MIC is the lowest concentration found to suppress growth. On to `O=C1c2cccc3cccc(c23)C(=O)N1Nc1nc(Nc2ccc(F)cc2)nc(N2CCOCC2)n1`, for which the MIC with Serratia marcescens worked out at 200 µg/mL (≈ 412 µM); in the experiment on Enterococcus faecalis, 200 µg/mL (≈ 412 µM); in the experiment with Salmonella enterica it was 200 µg/mL (≈ 412 µM); with Bacillus subtilis, 200 µg/mL (≈ 412 µM); in the experiment with Escherichia coli, 400 µg/mL (≈ 824 µM); with Staphylococcus aureus, 50 µg/mL (≈ 103 µM). Besides, the MIC in experiment [1] is 200 µg/mL (≈ 412 µM). For the same compound, the MIC result in the experiment with Listeria was “inactive”.
Consider `c1ccc(CNc2nc(NCc3ccccc3)nc(N3CCOCC3)n2)cc1`, for which the MIC entry in the experiment with Serratia marcescens, in the experiment on Listeria, in the experiment on Salmonella enterica, in the experiment on Bacillus subtilis and in the experiment on Escherichia coli was “inactive” throughout. Also, the figures for the MIC (with Enterococcus faecalis; in the experiment on Staphylococcus aureus; in experiment [1]) were 400 µg/mL (≈ 1060 µM), 200 µg/mL (≈ 531 µM) and 200 µg/mL (≈ 531 µM), respectively.
As for `CN1CCN(c2nc(NN3C(=O)c4cccc5cccc(c45)C3=O)nc(N3CCOCC3)n2)CC1`, the MIC in the experiment with Serratia marcescens was 12.5 µg/mL (≈ 26.3 µM); in the experiment with Enterococcus faecalis it was 200 µg/mL (≈ 421 µM); with Listeria it was 0.006 µg/mL (≈ 0.0126 µM); in the experiment on Salmonella enterica, 200 µg/mL (≈ 421 µM); with Bacillus subtilis, 200 µg/mL (≈ 421 µM); in the experiment on Escherichia coli, 100 µg/mL (≈ 211 µM). In addition, the minimum inhibitory concentration (MIC) is 1.56 µg/mL (≈ 3.29 µM) in the experiment with Staphylococcus aureus and 200 µg/mL (≈ 421 µM) in experiment [1].
`CCN1CCN(c2nc(NN3C(=O)c4cccc5cccc(c45)C3=O)nc(N3CCOCC3)n2)CC1`: the minimum inhibitory concentration (MIC) was 100 µg/mL (≈ 205 µM) with Serratia marcescens; 200 µg/mL (≈ 409 µM) in the experiment on Enterococcus faecalis; 3.12 µg/mL (≈ 6.39 µM) in the experiment with Listeria; 200 µg/mL (≈ 409 µM) with Salmonella enterica; 200 µg/mL (≈ 409 µM) with Bacillus subtilis; 100 µg/mL (≈ 205 µM) in the experiment on Escherichia coli. The values for the minimum inhibitory concentration (MIC) (in the experiment on Staphylococcus aureus; in experiment [1]) were 50 µg/mL (≈ 102 µM) and 200 µg/mL (≈ 409 µM), respectively.
In the case of `O=C1c2cccc3cccc(c23)C(=O)N1Nc1nc(NC2CCCCC2)nc(N2CCOCC2)n1`, the minimum inhibitory concentration (MIC) in the experiment with Serratia marcescens stood at 200 µg/mL (≈ 422 µM); with Enterococcus faecalis, 3.12 µg/mL (≈ 6.59 µM); in the experiment on Listeria, 25 µg/mL (≈ 52.8 µM); with Salmonella enterica, 200 µg/mL (≈ 422 µM); with Bacillus subtilis, 50 µg/mL (≈ 106 µM); in the experiment on Escherichia coli, 200 µg/mL (≈ 422 µM). Also, the minimal inhibitory concentration (MIC) with Staphylococcus aureus is 100 µg/mL (≈ 211 µM); in experiment [1], 200 µg/mL (≈ 422 µM).
Regarding `N#Cc1ccc(CNc2nc(NN3C(=O)c4cccc5cccc(c45)C3=O)nc(N3CCOCC3)n2)cc1`, the MIC amounted to 200 µg/mL (≈ 395 µM) in the experiment on Serratia marcescens; 100 µg/mL (≈ 197 µM) in the experiment on Enterococcus faecalis; 200 µg/mL (≈ 395 µM) in the experiment with Listeria; 400 µg/mL (≈ 790 µM) in the experiment on Salmonella enterica; 400 µg/mL (≈ 790 µM) with Bacillus subtilis; 200 µg/mL (≈ 395 µM) in the experiment on Escherichia coli. Moreover, the MIC (in the experiment with Staphylococcus aureus; in experiment [1]) was 100 µg/mL (≈ 197 µM) each time.
Take `CC1(C)S[C@@H]2[C@H](NC(=O)[C@H](N)c3ccc(O)cc3)C(=O)N2[C@H]1C(=O)O` [AMOXICILLIN]: the MIC with Serratia marcescens was 1.56 µg/mL (≈ 4.27 µM); with Enterococcus faecalis it was 1.56 µg/mL (≈ 4.27 µM); in the experiment with Listeria, 50 µg/mL (≈ 137 µM); in the experiment on Salmonella enterica it was 200 µg/mL (≈ 547 µM); with Bacillus subtilis, 50 µg/mL (≈ 137 µM); with Escherichia coli it was 100 µg/mL (≈ 274 µM). Besides, the MIC with Staphylococcus aureus is 25 µg/mL (≈ 68.4 µM); in experiment [1] it was 50 µg/mL (≈ 137 µM).
`Cc1ccc(CNc2nc(NN3C(=O)c4cccc5cccc(c45)C3=O)nc(N3CCOCC3)n2)cc1`: the MIC amounted to 100 µg/mL (≈ 202 µM) in the experiment with Serratia marcescens; 50 µg/mL (≈ 101 µM) in the experiment with Enterococcus faecalis; 25 µg/mL (≈ 50.4 µM) in the experiment with Listeria; 200 µg/mL (≈ 404 µM) in the experiment with Salmonella enterica; 12.5 µg/mL (≈ 25.2 µM) in the experiment on Bacillus subtilis; 200 µg/mL (≈ 404 µM) in the experiment on Escherichia coli. Besides, the results for the minimum inhibitory concentration (MIC) (with Staphylococcus aureus; in experiment [1]) were 12.5 µg/mL (≈ 25.2 µM) and 100 µg/mL (≈ 202 µM), respectively.
As to `O=C1c2cccc3cccc(c23)C(=O)N1Nc1nc(N2CCOCC2)nc(N2CCOCC2)n1`, the minimal inhibitory concentration (MIC) in the experiment with Serratia marcescens was 200 µg/mL (≈ 433 µM); in the experiment with Enterococcus faecalis, 200 µg/mL (≈ 433 µM); with Listeria, 200 µg/mL (≈ 433 µM); in the experiment on Salmonella enterica, 100 µg/mL (≈ 217 µM); in the experiment with Bacillus subtilis, 100 µg/mL (≈ 217 µM); in the experiment with Escherichia coli, 200 µg/mL (≈ 433 µM). Also, the MIC was 1.56 µg/mL (≈ 3.38 µM) in the experiment on Staphylococcus aureus and 200 µg/mL (≈ 433 µM) in experiment [1].
For `C#CCNc1nc(NN2C(=O)c3cccc4cccc(c34)C2=O)nc(N2CCOCC2)n1`, the MIC worked out at 200 µg/mL (≈ 466 µM) in the experiment with Serratia marcescens; 0.048 µg/mL (≈ 0.112 µM) with Enterococcus faecalis; 200 µg/mL (≈ 466 µM) with Listeria; 100 µg/mL (≈ 233 µM) in the experiment with Salmonella enterica; 25 µg/mL (≈ 58.2 µM) in the experiment on Bacillus subtilis; 100 µg/mL (≈ 233 µM) with Escherichia coli. The MIC in the experiment on Staphylococcus aureus was 50 µg/mL (≈ 116 µM); in experiment [1] it was 200 µg/mL (≈ 466 µM).
Take `C=CCNc1nc(NN2C(=O)c3cccc4cccc(c34)C2=O)nc(N2CCOCC2)n1`: the MIC in the experiment with Serratia marcescens was 200 µg/mL (≈ 464 µM); in the experiment with Enterococcus faecalis, 100 µg/mL (≈ 232 µM); in the experiment with Listeria, 100 µg/mL (≈ 232 µM); in the experiment with Salmonella enterica, 200 µg/mL (≈ 464 µM); in the experiment on Bacillus subtilis, 50 µg/mL (≈ 116 µM); in the experiment with Escherichia coli, 200 µg/mL (≈ 464 µM). Also, the minimum inhibitory concentration (MIC) is 25 µg/mL (≈ 57.9 µM) in the experiment on Staphylococcus aureus and 100 µg/mL (≈ 232 µM) in experiment [1].
